This is an account of results in US20120070390A1, “Topical drug delivery system with dual carriers” (priority 2010, published 2012).

Read-outs that look alike come from different tables or passages of the source.

The test system of data set [1] is HL-60 cells. The note with it: cited from earlier work; for subsequent retinoid-induced TGM2 expression after priming by pretreatment: HL-60 cells, short exposure.
Data set [2] deals with mouse embryonic stem cells and embryoid bodies. The note with it: cited from earlier work.
The test system of data set [3] is Staph aureus. The experiment in a line: Petri dish zone of inhibition comparison with control agents. Type of data set: cell-based, Staphylococcus aureus. The note with it: FIG. 16, identical size drops (diameters of ZOA).
For data set [4], the system named is MRSA. Kind of data set: Petri dish zone of inhibition test. The note with it: FIG. 17, identical size drops (diameters of ZOA). Type of data set: cell-based, Methicillin Resistant Staph Aureus.
The test system of data set [5] is MRSA infection and Grade I diabetic ulcer of the left hallux with cellulitus. The experiment in a line: Study III: human field study, diabetic foot lesion with MRSA cellulitus. The note with it: IV, 8 days following admission, before the invention was used. In kind it is in vivo.
Description: In this embodiment, the additional ingredient to hasten a third therapeutic tissue healing effect was added. This embodiment used vitamin D in a small but medically efficacious amount.
Data set [6] deals with Enterococcus faecalis. Kind of data set: Petri dish zone of inhibition comparison with control agents. In kind it is cell-based. The note with it: FIG. 25, identical size drops.
Data set [7] is described as follows: Study I: vancomycin peaks and troughs in the patient. Type of data set: in vivo, human. The note with it: 1.5 g BID, Q12, seven doses; ranges not noted. How it is done: Fri 2/5: Detection of a Strep-A strain, confirmed by culture study. Shifted from gentamycin to vancomycin 1.5 g BID, Q12. Patient was kept on this dosing regimen until 2/8 (date of discharge from hospital).
Mon 2/8: Patient received the last of seven doses of vancomycin. Throughout all of this their peaks (within 1 hour of receiving vancomycin) and troughs (before receiving vancomycin) were normal (ranges not noted here). Patient was discharged from the hospital on this date.

Consider vitamin D, for which, in data set [1], the “subsequent retinoid-induced TGM2 expression after priming by pretreatment” value was “increases subsequent retinoid-induced TGM2 expression”. Also, in data set [1] (vitamin D), the “amount at which desired cellular responses occurred” value is on record as “about 100 nM”.
Consider `C[S+](C)[O-]` [DMSO, dimethyl sulfoxide], for which, in data set [1] (DMSO), the “amount at which desired cellular responses occurred” value is listed as “less than 2%”. Further, the “subsequent retinoid-induced TGM2 expression after priming by pretreatment” value in data set [1] is on record as “increases subsequent retinoid-induced TGM2 expression”. Also, the “mRNA and protein expression in epigenetic profiles” value in data set [2] is “upregulation of mRNA and protein expression”.
In the case of `CC[C@H]1OC(=O)[C@H](C)[C@@H](O[C@H]2C[C@@](C)(OC)[C@@H](O)[C@H](C)O2)[C@H](C)[C@@H](O[C@@H]2O[C@H](C)C[C@H](N(C)C)[C@H]2O)[C@](C)(O)C[C@@H](C)C(=O)[C@H](C)[C@@H](O)[C@]1(C)O` [Erythromycin], the “zones of inhibition of control agents compared with the formulations of the invention” value in data set [3] and in data set [4] was “considerably reduced zones of inhibition” in each case.
`CO[C@@]1(NC(=O)Cc2cccs2)C(=O)N2C(C(=O)O)=C(COC(N)=O)CS[C@@H]21` [Cefoxicillin]: the “zones of inhibition of control agents compared with the formulations of the invention” value in data set [4] is on record as “considerably reduced zones of inhibition”.
In the case of `CN[C@H](CC(C)C)C(=O)N[C@H]1C(=O)N[C@@H](CC(N)=O)C(=O)N[C@H]2C(=O)N[C@H]3C(=O)N[C@H](C(=O)N[C@H](C(=O)O)c4cc(O)cc(O)c4-c4cc3ccc4O)[C@H](O)c3ccc(c(Cl)c3)Oc3cc2cc(c3O[C@@H]2O[C@H](CO)[C@@H](O)[C@H](O)[C@H]2O[C@H]2C[C@](C)(N)[C@H](O)[C@H](C)O2)Oc2ccc(cc2Cl)[C@H]1O` [Vancomycin], the “patient response to treatment” value in data set [5] was “did not respond”. In data set [6], the “zones of inhibition of control agents compared with the formulations of the invention” value is reported as “considerably reduced zones of inhibition”. In data set [7], the “peaks (within 1 hour of receiving) and troughs (before receiving)” value was “normal”.
